These results are taken from patent publication US20240209011A1, “HETEROAROMATIC PHOSPHONIUM SALTS FOR TREATING CANCER” (FLORATEK PHARMA S.A., priority 2021, published 2024).

The target of one test is T1, ADCK3 (Homo sapiens, UniProt Q8NI60).
T1 construct: purchased Eurofins (KINOMEscan); host or cells: T7 phage in BL21-derived E. coli, or HEK-293
Kind of test: KINOMEscan competition binding assay, Kd. As to conditions: 11-point 3-fold dilution series. As to the method: Selected compounds were screened for kinase inhibition using the KINOMEscan™ assay (Eurofins) which is based on a competition binding assay that quantitatively measures the ability of a compound to compete with an immobilized, active-site directed ligand. The assay was performed by combining three components: DNA-tagged kinase; immobilized ligand; and the test compound. The ability of the test compound to compete with the immobilized ligand was measured via quantitative PCR of the DNA tag.
Kinase-tagged T7 phage strains were prepared in an E. coli host derived from the BL21 strain. E. coli were grown to log-phase and infected with T7 phage and incubated with shaking at 32° C. until lysis. The lysates were centrifuged and filtered to remove cell debris. The remaining kinases were produced in HEK-293 cells and subsequently tagged with DNA for qPCR detection. Streptavidin-coated magnetic beads were treated with biotinylated small molecule ligands for 30 minutes at room temperature to generate affinity resins for kinase assays. The liganded beads were blocked with excess biotin and washed with blocking buffer (SeaBlock (Pierce), 1% BSA, 0.05% Tween 20, 1 mM DTT) to remove unbound ligand and to reduce non-specific binding. Binding reactions were assembled by combining kinases, liganded affinity beads, and test compounds in 1× binding buffer (20% SeaBlock, 0.17×PBS, 0.05% Tween 20, 6 mM DTT). Test compounds were prepared as 111× stocks in 100% DMSO. Kds were determined using an 11-point 3-fold compound dilution series with three DMSO control points. All compounds for Kd measurements are distributed by acoustic transfer (non-contact dispensing) in 100% DMSO. The compounds were then diluted directly into the assays such that the final concentration of DMSO was 0.9%. All reactions performed in polypropylene 384-well plate. Each was a final volume of 0.02 ml. The assay plates were incubated at room temperature with shaking for 1 hour and the affinity beads were washed with wash buffer (1×PBS, 0.05% Tween 20). The beads were then resuspended in elution buffer (1×PBS, 0.05% Tween 20, 0.5 μM nonbiotinylated affinity ligand) and incubated at room temperature with shaking for 30 minutes. The kinase concentration in the eluates was measured by qPCR.
Binding constants (Kds) were calculated with a standard dose-response curve using the Hill equation: Response=Background+[Signal−Background/i+(Kd^Hill Slope/Dose^Hill Slope)]. The Hill Slope was set to −1. Curves were fitted using a non-linear least square fit with the Levenberg-Marquardt algorithm.

For the next test, the system named is stomach PDX. The test can be described thus: Activity against stomach PDX. Format: cell-based. As to conditions: stomach PDX growth; summary of Table 23. As for the experimental part:
(§1) PDX-derived cell cultures were obtained from tumors explanted from mice and isolated by mechanical and enzymatic dissociation. […] Cells were harvested and seeded in 96-wells plates at a density of 1.25 to 5×10^3 cells/well for cytotoxicity assays. Cells were incubated 48 h at 37° C. prior to addition of test molecules and vehicle (DMSO, 0.1%) at desired final concentrations. Cell viability was assessed before drugs' addition (To) and 5 days after test molecules addition by measuring ATP cell content using CellTiter-Glo® Luminescent Cell Viability Assay (Promega) according to the manufacturer's instructions. Luciferase activity was measured on a luminometer (PerkinElmer® EnVision™). Each concentration of compounds was tested in triplicate.
(§2) Viability was calculated as a percentage of ATP value compared to vehicle treated controls.
(§3) For PDX primary cell cultures, the tumour tissue was washed with PBS containing antibiotic-antimycotic and non-tumour tissue and necrotic tumour tissues were separated. The tumour tissue was transferred to a new dish and cut into 1-2 mm^3 fragments, resuspended in RPMI-1640 medium and centrifuged at 1,200 rpm for 6 min at room temperature. The pelleted material was resuspended with 15 mL of Tumour Cell Digestion Solution and incubated at 37° C. for 1 hour with agitation. Following further addition of media, centrifugation and passage through a […] cell strainer, the homogenous cell mixture was layered onto 15 mL of Ficoll-Paque PLUS in a 50 mL conical tube and centrifuged for 15 min at 1,600 rpm. The interface cells were collected, washed with media, separated by centrifugation at 1,200 rpm. The cell pellet was resuspended in serum free media supplemented with growth factors. 10,000 cells/wells were plated in a 96 well plate and incubated at 37° C., 5% CO2, 95% air and 100% relative humidity overnight. The cytotoxicity assay was conducted as above. IC50 values represent absolute IC50.

A further test deals with skin melanoma PDX. Kind of test: Activity against skin melanoma PDX. Particulars: skin melanoma PDX growth; text summary of Table 22. In kind it is cell-based. As to the method:
as §1, §2, §3

For a further test, the system named is esophagus PDX. The test can be described thus: Activity against esophagus PDX. In kind it is cell-based. Particulars: esophagus PDX growth; summary of Table 10. As to the method:
as §1, §2, §3

The subject of a further test is colon PDX. Kind of test: Activity against colon PDX. Format: cell-based. As to conditions: for IC50: growth of colon PDX, Table 8; for selectivity among colon PDX: colon PDX CO-04-0722 and CO-04-0700 versus CO-04-0701. As to the method: as §1, §2, §3
For another test, the system named is bile duct PDX. The test can be described thus: Activity against bile duct PDX. In kind it is cell-based. Particulars: bile duct PDX growth; summary of Table 3. As to the method:
as §1, §2, §3

Another test deals with lymphoma PDX. The test can be described thus: Activity against lymphoma PDX. In kind it is cell-based. As to conditions: lymphoma PDX growth; Table 17. As for the experimental part:
as §1, §2, §3

In a further test the test system is kidney PDX. Kind of test: Activity against kidney PDX. Format: cell-based. Particulars: kidney PDX growth; summary of Table 12. As for the experimental part:
as §1, §2, §3

Another test deals with breast PDX. Kind of test: Activity against breast PDX. Format: cell-based. Particulars: growth of breast PDX; summary of Table 6. As for the experimental part: as §1, §2, §3
The next test deals with BR-05-0014E. The test can be described thus: PDX-derived cell culture cytotoxicity (CellTiter-Glo). Format: cell-based. As to conditions: 120 h; breast PDX BR-05-0014E; absolute IC50; 5 days. As for the experimental part:
as §1, §2, §3

In the next test the test system is ST-02-0007. The description is as above. Format: cell-based. Particulars: 120 h; stomach PDX ST-02-0007; absolute IC50; 5 days. As for the experimental part: as §1, §2, §3
In a further test the test system is CO-04-0722. The test is described as above. In kind it is cell-based. As to conditions: 120 h; colon PDX CO-04-0722; absolute IC50; 5 days. As for the experimental part: as §1, §2, §3
In another test the test system is LU-01-0027. Described as above. As to conditions: 120 h; lung PDX LU-01-0027; absolute IC50; 5 days. Format: cell-based. As to the method: as §1, §2, §3
The test system of another test is LU-01-0004. The test is described as above. In kind it is cell-based. As to conditions: 120 h; lung PDX LU-01-0004; absolute IC50; 5 days. As to the method: as §1, §2, §3
The next test deals with LU-01-0010. Described as above. Particulars: 120 h; lung PDX LU-01-0010; absolute IC50; 5 days. In kind it is cell-based. As for the experimental part: as §1, §2, §3
Another test has as its system CO-04-0701. The description is as above. Particulars: 120 h; colon PDX CO-04-0701; absolute IC50; 5 days. In kind it is cell-based. As for the experimental part: as §1, §2, §3

T1 sequence (Q8NI60 163-647): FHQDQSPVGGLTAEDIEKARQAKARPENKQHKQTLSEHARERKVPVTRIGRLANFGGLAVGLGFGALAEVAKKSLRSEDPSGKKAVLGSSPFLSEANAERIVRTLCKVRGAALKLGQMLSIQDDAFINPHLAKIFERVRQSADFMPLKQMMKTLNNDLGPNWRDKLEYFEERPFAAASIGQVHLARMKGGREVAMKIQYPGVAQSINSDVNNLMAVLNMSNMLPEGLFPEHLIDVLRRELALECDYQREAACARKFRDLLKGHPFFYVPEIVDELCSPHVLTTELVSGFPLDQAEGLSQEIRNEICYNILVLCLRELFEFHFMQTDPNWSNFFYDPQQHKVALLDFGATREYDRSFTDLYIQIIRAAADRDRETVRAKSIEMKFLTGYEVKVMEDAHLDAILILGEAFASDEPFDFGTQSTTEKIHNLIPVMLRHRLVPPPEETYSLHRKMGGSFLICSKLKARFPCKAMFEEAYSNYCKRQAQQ

By Kd is commonly meant the concentration at which binding is half-saturated. High values mean weaker binding, low ones tighter binding. Turning to `O=c1cc(-c2ccc(CCCC[P+](c3ccccc3)(c3ccccc3)c3ccccc3)cc2)oc2c(O)c(O)ccc12` [SND118, 4-[4-(7,8-dihydroxy-4-oxo-chromen-2-yl)phenyl]butyltriphenyl-phosphonium bromide], the Kd on ADCK3 turned out to be 1.5 µM.
In general, IC50 refers to the concentration that inhibits the measured activity by half. Read a high IC50 as weaker potency in that assay. On to `O=c1cc(-c2ccc(CCCC[P+](c3ccccc3)(c3ccccc3)c3ccccc3)cc2)oc2c3c(ccc12)OCO3.[Br-]` [SND123, 4-[4-(6-oxo-[1,3]dioxolo[4,5-h]chromen-8-yl)phenyl]butyl-triphenylphosphonium bromide], for which the IC50 with stomach PDX was under 20 µM; with skin melanoma PDX, under 10 µM; in the test with esophagus PDX it was under 20 µM; in the test with colon PDX, under 20 µM; in the test on bile duct PDX, under 20 µM; in the test on lymphoma PDX, under 5 µM. Further, the 50% inhibitory concentration (IC50) was under 20 µM in the test on kidney PDX; under 20 µM in the test with breast PDX; 0.98 µM in the test on BR-05-0014E; 1.5 µM with ST-02-0007; 2.1 µM in the test on CO-04-0722; 5.9 µM in the test on LU-01-0027. The IC50 in the test with LU-01-0004 was 3 µM; in the test with LU-01-0010, 0.8 µM; in the test on CO-04-0701, 3.4 µM. Moreover, on ADCK3, the Kd turned out to be 0.82 µM.
As for `CCNC(=O)Oc1ccc2c(=O)cc(-c3ccc(CCCC[P+](c4ccccc4)(c4ccccc4)c4ccccc4)cc3)oc2c1OC(=O)NCC.[Br-]` [SND124, 4-[4-[7,8-Bis(ethylcarbamoyloxy)-4-oxo-chromen-2-yl]phenyl]-butyltriphenylphosphonium bromide], the IC50 in the test with stomach PDX was under 20 µM; in the test on skin melanoma PDX, under 10 µM; in the test on esophagus PDX, under 20 µM; with colon PDX, under 20 µM; with bile duct PDX, under 20 µM; with lymphoma PDX, under 5 µM. The IC50 in the test on kidney PDX was under 20 µM; in the test on breast PDX it was under 20 µM; with BR-05-0014E, 7.2 µM; in the test on ST-02-0007, 10.2 µM; in the test on CO-04-0722 it was 3.2 µM; in the test on LU-01-0027 it was 9.3 µM. The IC50 with LU-01-0004 worked out at 7.1 µM; in the test on LU-01-0010 it was 7 µM; in the test with CO-04-0701, 21.8 µM. Besides, the “selectivity among colon PDX” value in the test with colon PDX is “marked selectivity toward CO-04-0722 and CO-04-0700”.
Take `CCNC(=O)Oc1ccc2c(=O)cc(-c3ccc(CCCC[P+](c4ccccc4)(c4ccccc4)c4ccccc4)cc3)oc2c1O.[Br-]` [SND126A, 4-[4-[7-(Ethylcarbamoyloxy)-8-hydroxy-4-oxo-chromen-2-yl]phenyl]butyltriphenylphosphonium bromide]: the IC50 in the test on stomach PDX was under 20 µM; in the test on skin melanoma PDX, under 10 µM; with esophagus PDX, under 20 µM; in the test on colon PDX, under 20 µM; with bile duct PDX, under 20 µM; with lymphoma PDX it was under 5 µM. Besides, the IC50 in the test with kidney PDX is under 20 µM; in the test on breast PDX, under 20 µM; in the test with BR-05-0014E, 7.7 µM; with ST-02-0007 it was 10.7 µM; in the test on CO-04-0722, 3.4 µM; in the test with LU-01-0027 it was 12 µM. For the same compound, the figures for the IC50 with LU-01-0004, with LU-01-0010 and with CO-04-0701 were 8.4 µM, 7.6 µM and over 30 µM, respectively. In addition, the “selectivity among colon PDX” value with colon PDX is “marked selectivity toward CO-04-0722 and CO-04-0700”.
In the test on bile duct PDX, `CC(C)NC(=O)Oc1ccc2c(=O)cc(-c3ccc(CCCC[P+](c4ccccc4)(c4ccccc4)c4ccccc4)cc3)oc2c1O` [SND127, 4-[4-[7-(Isopropylcarbamoyloxy)-8-hydroxy-4-oxo-chromen-2-yl]phenyl]butyltriphenylphosphonium bromide] gave an IC50 of under 20 µM.
Consider `COc1c(O)ccc2c(=O)cc(-c3ccc(CCCC[P+](c4ccccc4)(c4ccccc4)c4ccccc4)cc3)oc12.[Br-]` [SND140, (4-(4-(7-hydroxy-8-methoxy-4-oxo-4H-chromen-2-yl)phenyl)butyl)triphenylphosphonium bromide], for which the IC50 in the test on stomach PDX was under 20 µM; in the test with skin melanoma PDX it was under 10 µM; in the test with esophagus PDX it was under 20 µM; in the test with colon PDX, under 20 µM; with bile duct PDX it was under 20 µM; in the test with lymphoma PDX it was under 5 µM. In addition, the IC50 in the test with kidney PDX is under 20 µM; with breast PDX, under 20 µM; in the test on BR-05-0014E, 10.4 µM; in the test on ST-02-0007, 12 µM; with CO-04-0722 it was 11.6 µM; in the test on LU-01-0027, 16 µM. For the same compound, the IC50 turned out to be 11.7 µM in the test with LU-01-0004, 3 µM in the test with LU-01-0010 and 13.8 µM with CO-04-0701. On ADCK3, this compound displayed a Kd of 0.62 µM.
